{
  "source": "paper PMC6927504",
  "about": "“Screening of House Dust from Chinese Homes for Chemicals with Liver X Receptors Binding Activities and Characterization of Atherosclerotic Activity Using an in Vitro Macrophage Cell Line and ApoE^−/− Mice” (Environmental Health Perspectives, 2019)",
  "tested_on": "mouse peritoneal macrophages",
  "test": "Foam cell formation in peritoneal macrophages isolated from exposed C57BL/6 mice",
  "type": "in vivo",
  "conditions": "200 mg/kg BW for 7 d, p<0.05",
  "experimental": "RAW264.7 cells or mouse peritoneal macrophages were plated in 24-well plates at 6.0×10^4 cells/well and grown overnight. Then the medium was removed and fresh DMEM-F12 containing 10% FBS, 20μg/mL oxidized low-density lipoprotein (ox-LDL), and 0.1% DMSO (control; n=3 ) or TPHP at the concentration of 1–20,000 nM ( n=3 per group) was added. The cells were washed with PBS, followed by fixing in 4% paraformaldehyde for 30 min and staining with boron-dipyrromethene (BODIPY) 493/503 ( 20μg/mL ) and 4′,6-diamidino-2-phenylindole (DAPI; 100 ng/mL ) for 10 min. Foam cell formation was analyzed by high-content microscopy using ImageXpress® Micro XL (Molecular Devices). From each well, 25 image fields were scanned, and MetaXpress® (Molecular Devices) was used to quantify compartmentalized changes in the fluorescence of each cell.\nAll experiments related to animals were approved by the institutional animal care and use committee of Peking University and followed the guidelines for animal experiments of the university as well as for experimental animals in China. […] Body weight (BW) was measured every week during the dosing period. […] Considering that this study assessed the effects of short-term exposure to TPHP, whereas humans are exposed to TPHP over a lifelong period, the present study used exposure doses that were higher than that of human exposure from house dust. […]",
  "data": [
    {"smiles": "O=P(Oc1ccccc1)(Oc1ccccc1)Oc1ccccc1", "note": "[TPHP, triphenyl phosphate]", "values": [
      {"measurement": "Foam cell staining in peritoneal macrophages relative to control", "result": "2.88±0.95", "unit": "fold"}
    ]}
  ]
}
